Results reported in patent publication US6239171A, “Tocotrienols and tocotrienol-like compounds and methods for their use” (Lipogenics, Inc., priority 1998, dated 2001).

Columns and labels:
[1] = system: cholesterol 7α-hydroxylase; assay: Hepatic cholesterol 7α-hydroxylase activity in chickens fed supplemented diets; type: in vivo, chicken; conditions: control diet + 50 ppm, 4 weeks
Procedure: This example measured the effects of the TRF and its components on the hepatic enzymatic activity of HMG-CoA reductase and cholesterol 7α-hydroxylase. […] The amount of feed consumed ranged from 11.19-11.60 g per chicken and the feeding period was 4 weeks. The birds were fasted for a period of 36 hours and refed for 48 hours prior to sacrifice (at 0800 hours).

[2] = system: hypercholesterolemic swine; assay: Serum cholesterol, apolipoproteins, triglycerides, glucose, insulin and glucagon in hypercholesterolemic swine; type: in vivo
Procedure: All assays conducted on chicken or swine serum were done following the protocols described in A. A. Qureshi et al., "Lowering Of Serum Cholesterol In Hypercholesterolemic Humans By Tocotrienols" (Palmvitee), Am. […] Plasma insulin, glucagon and TNF levels were measured using radioinnumoassay kits from Ventrex Laboratories, Inc. (Portland, Me.), ICN Biomedicals, Inc. (Costa Mesa, Calif.) and Genzyme Corp. (Cambridge, Mass.), respectively.
We next measured the effects of various tocotrienols from rice bran on HMG-CoA reductase and cholesterol 7α-hydroxylase in hypercholesterolemic swine. Since pigs are very similar to humans in their cholesterol metabolism, they provide a useful model from which to study hypercholesterolemia and related diseases. […] As a result, the pigs develop complicated atherosclerotic plaques that closely resemble advanced atherosclerotic lesions found in humans.
(§1) Each group of three 5-month old swine was administered either a control diet or a control diet supplemented with 50 ppm of TRF or 50 ppm of an individual tocotrienol. […] After a 12 hour fast, serum and plasma samples were taken a 0 hrs, 21 days and 42 days from the start of the feeding period. After taking serum and plasma samples from the pigs at the end of the 42 day period, all of the swine were fasted for a total of 40 hours, followed by a 48 hour refeeding period. One swine from each group was sacrificed at that time and the liver, intestine, lung, heart, loin muscle, adipose tissue and ham muscle were removed.
The experimental conditions were the same, except that the two remaining swine in each group were transferred to the unsupplemented control diet following the 42 day feeding period. After an additional 70 days, serum and plasma samples were collected from these swine after a 12 hour fast for testing.

[3] = system: hypercholesterolemic swine; assay: Total cholesterol, triglyceride and glucose concentrations in tissues of hypercholesterolemic swine; type: in vivo; conditions: control diet + 50 ppm, 42 days
Procedure: as §1
We next determined the effect of tocotrienols on the total cholesterol, triglyceride and glucose concentrations in various tissues of hypercholesterolemic swine.

[4] = system: hypercholesterolemic swine; assay: Plasma thromboxane B2 and platelet factor 4 in hypercholesterolemic swine; type: in vivo; conditions: control diet + 50 ppm, 42 days
Excerpt: All assays conducted on chicken or swine serum were done following the protocols described in A. A. Qureshi et al., "Lowering Of Serum Cholesterol In Hypercholesterolemic Humans By Tocotrienols" (Palmvitee), Am. J. Clin. Nutr., 53, pp. 1021S-26S (1991). All enzymatic assays were done following the protocols described in A. A. Qureshi et al., "Effects of Cereals and Culture Filtrate of Trichoderma viride on Lipid Metabolism of Swine", Lipids, 17, pp. 924 (1982). Plasma insulin, glucagon and TNF levels were measured using radioinnumoassay kits from Ventrex Laboratories, Inc. (Portland, Me.), ICN Biomedicals, Inc. (Costa Mesa, Calif.) and Genzyme Corp. (Cambridge, Mass.), respectively.
Each group of three 5-month old swine was administered either a control diet or a control diet supplemented with 50 ppm of TRF or 50 ppm of an individual tocotrienol. The samples were prepared as described in Example 11. After a 12 hour fast, serum and plasma samples were taken a 0 hrs, 21 days and 42 days from the start of the feeding period. After taking serum and plasma samples from the pigs at the end of the 42 day period, all of the swine were fasted for a total of 40 hours, followed by a 48 hour refeeding period. One swine from each group was sacrificed at that time and the liver, intestine, lung, heart, loin muscle, adipose tissue and ham muscle were removed.
This example was conducted to measure the serum levels of apolipoprotein (a)1, apolipoprotein B, triglycerides, glucose, insulin and glucagon and the plasma levels of thromboxane B2 and platelet factor 4 in the swine described in Example 15.

[5] = 70 days on control diet after 42 days at 50 ppm

## CC(C)=CCC/C(C)=C/CC/C(C)=C/CCC1(C)CCc2cc(O)c(C)c(C)c2O1 (stereo not drawn) [γ-T3, γ-tocotrienol, reference compound]
[1]
  Cholesterol 7α-Hydroxylase, percentage of control: 107.34%
  Cholesterol 7α-hydroxylase: 10.97 nmol/min/mg
[2]; [5]
  HDL-CHOLESTEROL CONCENTRATION IN SERUM: 30.47 mg/100 ml
  HDL-CHOLESTEROL, Percentage of Control Activity: 106.66%
  HDL-CHOLESTEROL, percentage of baseline value: 139.39%
  HDL:LDL CHOLESTEROL, Percentage of Control Activity: 84.52%
  LDL-CHOLESTEROL CONCENTRATION IN SERUM: 224.66 mg/100 ml
  LDL-CHOLESTEROL, Percentage of Control Activity: 88.61%
  LDL-CHOLESTEROL, percentage of baseline value: 125.95%
  TOTAL CHOLESTEROL CONCENTRATION IN SERUM: 271.70 mg/100 ml
  TOTAL CHOLESTEROL, Percentage of Control Activity: 78.80%
  TOTAL CHOLESTEROL, percentage of baseline value: 129.66%
[2]; control diet + 50 ppm, 6 weeks
  Apo A1, percentage of control: 102.06%
  Apo A1 concentration in serum: 26.22 ± 1.11 mg/100 ml
  Apo B concentration in serum: 114.29 ± 1.79 mg/100 ml
  Apo B, percentage of control: 77.34%
  Triglycerides concentration in serum: 61.78 mg/100 ml
  Triglycerides, percentage of control: 80.69%
[2]; control diet + 50 ppm, 21 days
  HDL-CHOLESTEROL CONCENTRATION IN SERUM: 25.27 mg/100 ml
  HDL-CHOLESTEROL, percentage of baseline value: 115.59%
  HDL:LDL CHOLESTEROL, percentage of baseline value: 89.83%
  LDL-CHOLESTEROL CONCENTRATION IN SERUM: 185.12 mg/100 ml
  LDL-CHOLESTEROL, percentage of baseline value: 103.78%
  TOTAL CHOLESTEROL CONCENTRATION IN SERUM: 225.20 mg/100 ml
  TOTAL CHOLESTEROL, percentage of baseline value: 107.39%
[2]; control diet + 50 ppm, 42 days
  Glucagon: 285.41 pg/mL
  Glucagon, percentage of control: 86.38%
  Glucose: 74.40 mg/100 ml
  Glucose, percentage of control: 77.51%
  HDL-CHOLESTEROL CONCENTRATION IN SERUM: 28.55 mg/100 ml
  HDL-CHOLESTEROL, Percentage of Control Activity: 111.06%
  HDL-CHOLESTEROL, percentage of baseline value: 130.60%
  HDL:LDL CHOLESTEROL, Percentage of Control Activity: 60.58%
  HDL:LDL CHOLESTEROL, percentage of baseline value: 82.84%
  Insulin: 21.2 µU/mL
  Insulin, percentage of control: 103.46%
  LDL-CHOLESTEROL CONCENTRATION IN SERUM: 193.80 mg/100 ml
  LDL-CHOLESTEROL, Percentage of Control Activity: 66.22%
  LDL-CHOLESTEROL, percentage of baseline value: 108.65%
  TOTAL CHOLESTEROL CONCENTRATION IN SERUM: 233.93 mg/100 ml
  TOTAL CHOLESTEROL, Percentage of Control Activity: 71.00%
  TOTAL CHOLESTEROL, percentage of baseline value: 111.76%
[3]
  TOTAL CHOLESTEROL CONCENTRATION, Adipose Tissue: 94.55 mg/100 gm
  TOTAL CHOLESTEROL CONCENTRATION, Ham Muscle: 85.15 mg/100 gm
  TOTAL CHOLESTEROL CONCENTRATION, Heart: 56.68 mg/100 gm
  TOTAL CHOLESTEROL CONCENTRATION, Intestine: 187.06 mg/100 gm
  TOTAL CHOLESTEROL CONCENTRATION, Liver: 149.20 mg/100 gm
  TOTAL CHOLESTEROL CONCENTRATION, Loin Muscle: 103.48 mg/100 gm
  TOTAL CHOLESTEROL CONCENTRATION, Lung: 83.79 mg/100 gm
  TOTAL CHOLESTEROL, Adipose Tissue, percentage of control: 86.43%
  TOTAL CHOLESTEROL, Ham Muscle, percentage of control: 85.15%
  TOTAL CHOLESTEROL, Heart, percentage of control: 87.86%
  TOTAL CHOLESTEROL, Intestine, percentage of control: 86.81%
  TOTAL CHOLESTEROL, Liver, percentage of control: 74.01%
  TOTAL CHOLESTEROL, Loin Muscle, percentage of control: 86.51%
  TOTAL CHOLESTEROL, Lung, percentage of control: 82.36%
  TOTAL GLUCOSE CONCENTRATION, Adipose Tissue: 15.93 mg/100 gm
  TOTAL GLUCOSE CONCENTRATION, Ham Muscle: 52.10 mg/100 gm
  TOTAL GLUCOSE CONCENTRATION, Heart: 46.81 mg/100 gm
  TOTAL GLUCOSE CONCENTRATION, Intestine: 62.50 mg/100 gm
  TOTAL GLUCOSE CONCENTRATION, Liver: 383.68 mg/100 gm
  TOTAL GLUCOSE CONCENTRATION, Loin Muscle: 60.30 mg/100 gm
  TOTAL GLUCOSE CONCENTRATION, Lung: 63.08 mg/100 gm
  TOTAL GLUCOSE, Adipose Tissue, percentage of control: 86.86%
  TOTAL GLUCOSE, Ham Muscle, percentage of control: 96.80%
  TOTAL GLUCOSE, Heart, percentage of control: 95.05%
  TOTAL GLUCOSE, Intestine, percentage of control: 86.84%
  TOTAL GLUCOSE, Liver, percentage of control: 94.53%
  TOTAL GLUCOSE, Loin Muscle, percentage of control: 84.64%
  TOTAL GLUCOSE, Lung, percentage of control: 94.25%
  TOTAL TRIGLYCERIDES CONCENTRATION, Adipose Tissue: 391.58 mg/100 gm
  TOTAL TRIGLYCERIDES CONCENTRATION, Ham Muscle: 181.99 mg/100 gm
  TOTAL TRIGLYCERIDES CONCENTRATION, Heart: 142.72 mg/100 gm
  TOTAL TRIGLYCERIDES CONCENTRATION, Intestine: 351.33 mg/100 gm
  TOTAL TRIGLYCERIDES CONCENTRATION, Liver: 397.51 mg/100 gm
  TOTAL TRIGLYCERIDES CONCENTRATION, Loin Muscle: 201.65 mg/100 gm
  TOTAL TRIGLYCERIDES CONCENTRATION, Lung: 167.18 mg/100 gm
  TOTAL TRIGLYCERIDES, Adipose Tissue, percentage of control activity: 89.88%
  TOTAL TRIGLYCERIDES, Ham Muscle, percentage of control activity: 97.93%
  TOTAL TRIGLYCERIDES, Heart, percentage of control activity: 98.96%
  TOTAL TRIGLYCERIDES, Intestine, percentage of control activity: 98.24%
  TOTAL TRIGLYCERIDES, Liver, percentage of control activity: 92.58%
  TOTAL TRIGLYCERIDES, Loin Muscle, percentage of control activity: 91.79%
  TOTAL TRIGLYCERIDES, Lung, percentage of control activity: 97.22%
[4]
  Platelet Factor 4, percentage of control: 85.28%
  Thromboxane B2: 62.54 pg/100 ml
  Thromboxane B2, percentage of control: 92.25%
